Measured values: patent US5656629A, “6-substituted pyrazolo (3,4-d)pyrimidin-4-ones and compositions and methods of use thereof” (Sanofi Winthrop, Inc., priority 1995, dated 1997)

Assays:
[1] = test system: Spontaneously hypertensive rats; experiment: reversal of nitroglycerin-induced tolerance in spontaneously hypertensive rats; assay type: in vivo, Spontaneously hypertensive rats (17-25 weeks of age); conditions: for Percent (%) Reversal of Nitroglycerin-induced Tolerance: iv pretreatment 5-10 min before nitroglycerin challenge
Method: Spontaneously hypertensive rats (17-25 weeks of age) were made nitroglycerin tolerant by repeated administration of high doses of nitroglycerin (100 mg/kg, s.c., 3 times/day for 3 consecutive days). To confirm tolerance challenge doses of nitroglycerin were administered intravenously at doses ranging from 1-300 μg/kg and the maximum change in mean arterial pressure (MAP) for each dose was recorded. Groups of tolerant rats were pretreated with the compounds of the invention (tolerant pretreated group) or with vehicle (0.05N NaOH) (tolerant vehicle pretreated group) intravenously 5-10 minutes prior to administration of challenge doses of nitroglycerin. The administration of challenge doses of nitroglycerin to non-tolerant rats (the non-tolerant group) caused a dose-dependent decrease in MAP of between 10 to 40 mm Hg. […] The area under the dose-MAP curve was calculated for the non-tolerant group and for the tolerant vehicle pretreated group and the tolerant pretreated group. The percent reversal of nitrate-inducedtolerance was calculated as follows:
Percent Reversal=(AUCtol-pretreated -AUCtol-veh)/(AUCnontol
wherein: AUCnontol =the area under the dose-MAP curve for the non-tolerant group.
AUCtol-veh =the area under the dose-MAP curve for the tolerant vehicle pretreated group.
AUCtol-pretreated =the area under the dose-MAP curve for the tolerant pretreated group.
The following table summarizes the results obtained from the testing of representative compounds of the invention.

cGMP-PDE V = target: T1, cGMP-PDE V (Homo sapiens, UniProt O76074); experiment: cGMP-PDE V inhibition (isozyme isolated from cardiovascular tissue); assay type: biochemical, various animal species and man
T1 construct: isolated from cardiovascular tissues (heart and aorta); from tissue; host or cells: cardiovascular tissues (heart and aorta)
Description: The cGMP-PDE and other PDE isozymes were isolated from cardiovascular tissues (heart and aorta) of various animal species and man by anion-exchange and affinity chromatography as described by Silver et al., Sec. Messeng. Phos. […] Cyclic Nucleotide Res. 10:69-92.

[2] = test system: Spontaneously hypertensive rats (SHR); experiment: antihypertensive activity in conscious spontaneously hypertensive rats (mean arterial pressure); assay type: in vivo; conditions: Rattus norvegicus, SHR iv; for ED25: 5 min, 5 min after dose, cumulative dosing, read-out: ED25, change in mean arterial pressure
Method: After a 2 day recovery from surgery, three baseline blood pressure measurements were made at 5 min intervals in conscious SHR. Compounds to be tested or vehicle were then administered intravenously in a dose-dependent manner (0.3-10 mg base/kg) while arterial pressure was recorded continuously on a polygraph. The mean arterial pressure response was measured 5 minutes after the administration of each dose of the test compound and the next dose given in a cumulative dose fashion. The response to each dose of the test compound was calculated as the difference from the mean of the three baseline measurements.

[3] = test system: Spontaneously hypertensive rats (SHR); experiment: as above; assay type: in vivo; conditions: Rattus norvegicus

Structure (SMILES): CCc1[nH]n(C2CCCC2)c2nc(Cc3ccc(O)cc3)nc(=O)c1-2 [Example 7, 1-cyclopentyl-3-ethyl-6-(4-hydroxyphenylmethyl)pyrazolo[3,4-d]pyrimidin-4-one]
- Percent (%) Reversal of Nitroglycerin-induced Tolerance ([1]; Dose 0.3 mg/kg): 46%
- Percent (%) Reversal of Nitroglycerin-induced Tolerance ([1]; Dose 1.0 mg/kg): 45%
- IC50 (cGMP-PDE V): 19 nM
- ED25 [2]: 4.6 mg/kg

Structure (SMILES): CCc1nn(C2CCCC2)c2nc(Cc3ccccc3)[nH]c(=O)c12 [1(b), 1-cyclopentyl-3-ethyl-6-(phenylmethyl)-pyrazolo[3,4-d]pyrimdin-4-one]
- change in vivo at 30 mg/kg ([3]; SHR iv, 30 mg/kg): -29%
- IC50 (cGMP-PDE V): 10 nM
- change in vivo at 1 mg/kg ([2]; 1 mg/kg): -15%

Structure (SMILES): CCc1[nH]n(C2CCCC2)c2nc(Cc3ccc(N)cc3)nc(=O)c1-2 [Example 26, 1-cyclopentyl-3-ethyl-6-(4-aminophenylmethyl)pyrazolo[3,4-d]pyrimidin-4-one]
- change in vivo at 10 mg/kg ([3]; SHR, 10 mg/kg, po): -56%
- IC50 (cGMP-PDE V): 8.7 nM
- ED25 [2]: 4.2 mg/kg
- change in vivo at 10 mg/kg [2]: -46%

Structure (SMILES): CCc1[nH]n(C2CCCC2)c2nc(Cc3ccc(OC)cc3)nc(=O)c1-2 [Example 6, 1-cyclopentyl-3-ethyl-6-(4-methoxyphenylmethyl)pyrazolo[3,4-d]pyrimidin-4-one]
- Percent (%) Reversal of Nitroglycerin-induced Tolerance ([1]; Dose 1.0 mg/kg): 69%
- Percent (%) Reversal of Nitroglycerin-induced Tolerance ([1]; Dose 3.0 mg/kg): 140%
- IC50 (cGMP-PDE V): 23 nM
- ED25 [2]: 8.4 mg/kg
- change in vivo at 10 mg/kg [2]: -30%

Structure (SMILES): O=[N+]([O-])OCC(CO[N+](=O)[O-])O[N+](=O)[O-] [nitroglycerin, reference compound]
- hypotensive response to nitroglycerin challenge ([1]; tolerant vehicle pretreated group, 1-300 μg/kg iv): significant reduction of the hypotensive response
